Test results taken from US20210115104A1, “AMYLIN ANALOGUES” (Zealand Pharma A/S, priority 2015, published 2021).
*1 amine or outer side, *2 acyl side, *3 side chain or, on linkers, in order; H or OH if unused. Where a SMILES comes first, the peptide text is derived from it. Bridges are numbered along the chain shown (N, C = ends). [ ]: non-standard residue; d: D form. The star is where a group is joined. C20 diacid = O=C(O)CCCCCCCCCCCCCCCCCCC(=O)*; γGlu = O=C(O)[C@H](CCC(=O)[*:2])N[*:1]; Hyp = O=C(O)[C@@H]1C[C@@H](O)CN1; NMeI = CC[C@H](C)[C@H](NC)C(=O)O; Sar = CNCC(=O)O

Key:
[1] = Pharmacokinetic (PK) profiling in rats; assay type: in vivo, rat; design: CI/F (apparent clearance values): unit not given here; details: Sprague Dawley male rats, single sc 30 nmol/kg
Experimental: Sprague Dawley male rats were given a single subcutaneous (sc) bolus of each peptide to be tested, as specified below. 30 nmol/kg doses of compound were administered. Blood samples were drawn from the tail vein prior to dosing and at 24, 48, 72, 96 and 168 hours after dosing. Blood samples were taken from two rats at each time point, and only 2 blood samples were drawn from each rat, i.e. […] were used for each compound. The rats were euthanized immediately after the last blood sampling by concussion and cervical dislocation.
The dosing vehicle used for each test peptide was a mannitol-containing histidine buffer (pH 7.0). Plasma samples were analyzed after precipitation with ethanol by liquid chromatography mass spectrometry (LC-MS/MS). Mean plasma concentrations were used for calculation of the pharmacokinetic parameters using the non-compartmental approach in Phoenix WinNonlin 6.3.
Plasma terminal elimination half-life (t1/2) was determined as ln(2)/λz, where λz is the magnitude of the slope of the log linear regression of the log concentration versus time profile during the terminal phase. Apparent clearance (CL/F) was determined as dose/AUCinf (sc), where AUCinf is the area under the plasma concentration vs. time curve extrapolated to infinity (AUCinf=AUClast+Clast/λz, where Clast is the last observed plasma concentration).

[2] = Assessment of chemical stability (RP-HPLC normalized purity); assay type: physicochemical; details: 7 days, 40° C., Table 1; for Normalized purity after 7 days, 40° C., pH 4: pH 4, 0.2 mg/ml; for Normalized purity after 7 days, 40° C., pH 6: pH 6, 0.2 mg/ml; for Normalized purity after 7 days, 40° C., pH 7.5: pH 7.5, 0.2 mg/ml; for Normalized purity after 7 days, 40° C., pH 9: pH 9, 0.2 mg/ml
In short: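 Peptides at 0.2 mg/ml in water adjusted to pH 4, 6, 7.5 or 9, incubated at 40° C for 7 days. Main-peak area-% by RP-HPLC (C8 ammonium formate or C18 TFA gradient, UV 220 nm), normalized to T=0 as 100.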

[3] = Assessment of physical stability (Thioflavin T fibrillation); assay type: physicochemical; design: key: FND = fibrillation not detected; FD = fibrillation detected; details: 1 mg/ml, 40° C., ThT; for Fibrillation pH 4.0 (Ac): 50 mM acetate buffer pH 4.0, 96 hours; for Fibrillation pH 7.0 (His): 50 mM histidine buffer pH 7.0, 96 hours; for Fibrillation pH 7.0 (Phos.): 50 mM phosphate buffer pH 7.0, 96 hours
In short: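 1 mg/ml peptide with 40 μM ThT in 50 mM phosphate pH 7.0, 50 mM histidine pH 7.0 or 50 mM acetate pH 4.0, in triplicate. Fluorescence read every 10 min after 300 s agitation over 96 h at 40 °C. Lag-time (h) is the intersection of linear fits to stable and growth phases.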

[4] = molecular target: T1, human calcitonin receptor (hCTR2) (Homo sapiens, UniProt P30988); experiment: hCTR2 cAMP assay (AlphaScreen) in COS7 cells; assay type: cell-based; details: cAMP induction, COS7 cells expressing hCTR2; Table 1; read-out: hCTR2 EC50
T1 construct: expressed in transfected cells
T1 sequence (P30988 25-474): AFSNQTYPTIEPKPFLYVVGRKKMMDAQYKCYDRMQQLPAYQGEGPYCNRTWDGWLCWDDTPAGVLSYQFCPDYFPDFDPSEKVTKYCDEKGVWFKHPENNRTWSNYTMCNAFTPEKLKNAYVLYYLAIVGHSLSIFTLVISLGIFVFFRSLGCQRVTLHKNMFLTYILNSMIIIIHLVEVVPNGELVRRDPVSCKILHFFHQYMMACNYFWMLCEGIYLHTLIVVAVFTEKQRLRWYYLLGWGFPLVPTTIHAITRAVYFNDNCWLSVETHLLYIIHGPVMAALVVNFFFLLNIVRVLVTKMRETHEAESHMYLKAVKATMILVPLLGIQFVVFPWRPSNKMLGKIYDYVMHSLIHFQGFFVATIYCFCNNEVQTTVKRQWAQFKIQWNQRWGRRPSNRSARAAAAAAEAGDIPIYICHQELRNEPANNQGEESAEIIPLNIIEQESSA
In short: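 Stable hCTR2 clone in RAMP-naïve COS7 cells stimulated 15 min at 37 °C with increasing peptide concentrations in Tyrode buffer pH 7.4 containing IBMX and 0.1% casein. cAMP in lysates measured by AlphaScreen; EC50 from 4-parameter logistic fit.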

[5] = molecular target: T2, human amylin receptor 3 (hAMYR3), hCTR2 co-expressed with hRAMP3 (Homo sapiens, UniProt O60896+P30988); experiment: hAMYR3 cAMP assay (AlphaScreen) in COS7 cells; assay type: cell-based; details: cAMP induction, COS7 cells expressing hAMYR3; Table 1; read-out: hAMYR3 EC50
T2 construct: expressed in transfected cells
T2 sequence (P30988 25-474): T1 sequence (P30988 25-474)
T2 sequence (O60896 24-148 partner): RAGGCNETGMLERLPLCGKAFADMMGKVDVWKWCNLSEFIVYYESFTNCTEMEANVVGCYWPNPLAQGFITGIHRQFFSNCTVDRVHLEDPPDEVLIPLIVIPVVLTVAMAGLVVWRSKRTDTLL
In short: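 Stable COS7 clone co-expressing hCTR2 and hRAMP3 was exposed to increasing peptide concentrations in Tyrode buffer (pH 7.4) with 100 µM IBMX and 0.1% casein for 15 min at 37 °C. Lysate cAMP was measured by AlphaScreen; EC50 came from 4-parameter logistic fitting.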

CI/F (apparent clearance values) [1] | Normalized purity after 7 days, 40° C., pH 4 [2] | Normalized purity after 7 days, 40° C., pH 6 [2] | Normalized purity after 7 days, 40° C., pH 7.5 [2] | Normalized purity after 7 days, 40° C., pH 9 [2] | Fibrillation pH 4.0 (Ac) [3] | Fibrillation pH 7.0 (His) [3] | Fibrillation pH 7.0 (Phos.) [3] | EC50 [4] | EC50 [5] | Structure (SMILES)
0.0096 | A (A = >90%) | B (B = 70-90%) | B (B = 70-90%) | B (B = 70-90%) | FND | FD | FD | 0.099 nM | – | CC[C@H](C)[C@@H](C(=O)N[C@@H](CC(C)C)C(=O)N[C@@H](CO)C(=O)N[C@@H](CO)C(=O)N[C@H](C(=O)N[C@@H](CCC(=O)O)C(=O)N[C@H](C(=O)NCC(=O)N[C@@H](CO)C(=O)N[C@@H](CO)C(=O)N[C@H](C(=O)N1C[C@H](O)C[C@H]1C(N)=O)[C@@H](C)O)C(C)C)[C@@H](C)O)N(C)C(=O)[C@H](C)NC(=O)CN(C)C(=O)[C@H](Cc1ccccc1)NC(=O)[C@H](CO)NC(=O)[C@H](CO)NC(=O)[C@H](CCCNC(=N)N)NC(=O)[C@@H](NC(=O)[C@H](CC(C)C)NC(=O)[C@H](Cc1ccccc1)NC(=O)[C@H](Cc1c[nH]cn1)NC(=O)[C@H](C)NC(=O)[C@H](CC(C)C)NC(=O)[C@H](CCCNC(=N)N)NC(=O)[C@H](CCC(=O)O)NC(=O)[C@@H](NC(=O)[C@H](C)NC(=O)[C@@H]1CSSC[C@H](NC(=O)[C@H](CCCNC(=N)N)NC(=O)CC[C@H](NC(=O)CCCCCCCCCCCCCCCCCCC(=O)O)C(=O)O)C(=O)NCC(=O)N[C@@H]([C@@H](C)O)C(=O)N[C@@H](C)C(=O)N[C@@H]([C@@H](C)O)C(=O)N1)[C@@H](C)O)[C@@H](C)O [Compound 9, [19CD]-isoGlu-R-C( )-GTAT-C( )-ATERLAHFLTRSSF-Gly(Me)-A-Ile(Me)-LSSTEVGSST-Hyp-NH2] ({C20 diacid-γGlu}-RCGTATCATERLAHFLTRSSF[Sar]A[NMeI]LSSTEVGSST[Hyp]-NH2; disulfide 2-7)
– | A (A = >90%) | A (A = >90%) | B (B = 70-90%) | B (B = 70-90%) | FND | FND | FND | 0.08 nM | 0.14 nM | CC[C@H](C)[C@@H](C(=O)N[C@@H](CC(C)C)C(=O)N[C@@H](CO)C(=O)N[C@@H](CO)C(=O)N[C@H](C(=O)N[C@@H](CCC(=O)O)C(=O)N[C@H](C(=O)NCC(=O)N[C@@H](CO)C(=O)N[C@@H](CC(N)=O)C(=O)N[C@H](C(=O)N1C[C@H](O)C[C@H]1C(N)=O)[C@@H](C)O)C(C)C)[C@@H](C)O)N(C)C(=O)[C@H](C)NC(=O)CN(C)C(=O)[C@H](Cc1ccccc1)NC(=O)[C@H](CO)NC(=O)[C@H](CO)NC(=O)[C@H](CCCNC(=N)N)NC(=O)[C@H](CCC(N)=O)NC(=O)[C@H](CC(C)C)NC(=O)[C@H](Cc1ccccc1)NC(=O)[C@H](CC(=O)O)NC(=O)[C@H](C)NC(=O)[C@H](CC(C)C)NC(=O)[C@H](CCCNC(=N)N)NC(=O)[C@H](CCC(=O)O)NC(=O)[C@@H](NC(=O)[C@H](C)NC(=O)[C@@H]1CSSC[C@H](NC(=O)[C@H](CCCNC(=N)N)NC(=O)CC[C@H](NC(=O)CCCCCCCCCCCCCCCCCCC(=O)O)C(=O)O)C(=O)NCC(=O)N[C@@H]([C@@H](C)O)C(=O)N[C@@H](C)C(=O)N[C@@H]([C@@H](C)O)C(=O)N1)[C@@H](C)O [Compound 54, [19CD]-isoGlu-R-C( )-GTAT-C( )-ATERLADFLQRSSF-Gly(Me)-A-Ile(Me)-LSSTEVGSNT-Hyp-NH2] ({C20 diacid-γGlu}-RCGTATCATERLADFLQRSSF[Sar]A[NMeI]LSSTEVGSNT[Hyp]-NH2; disulfide 2-7)
– | A (A = >90%) | A (A = >90%) | A (A = >90%) | A (A = >90%) | FND | FND | FND | 0.33 nM | 0.28 nM | CC[C@H](C)[C@@H](C(=O)N[C@@H](CC(C)C)C(=O)N[C@@H](CO)C(=O)N[C@@H](CO)C(=O)N[C@H](C(=O)N[C@@H](CCC(=O)O)C(=O)N[C@H](C(=O)NCC(=O)N[C@@H](CO)C(=O)N[C@@H](CC(N)=O)C(=O)N[C@H](C(=O)N1CCC[C@H]1C(N)=O)[C@@H](C)O)C(C)C)[C@@H](C)O)N(C)C(=O)[C@H](C)NC(=O)CN(C)C(=O)[C@H](Cc1ccccc1)NC(=O)[C@H](CCCNC(=N)N)NC(=O)[C@H](CCC(N)=O)NC(=O)[C@H](CC(C)C)NC(=O)[C@H](Cc1ccccc1)NC(=O)[C@H](Cc1c[nH]cn1)NC(=O)[C@H](C)NC(=O)[C@H](CC(C)C)NC(=O)[C@H](CCCNC(=N)N)NC(=O)[C@H](CCC(=O)O)NC(=O)[C@@H](NC(=O)[C@H](C)NC(=O)[C@@H]1CSSC[C@H](NC(=O)[C@H](CCCNC(=N)N)NC(=O)CC[C@H](NC(=O)CCCCCCCCCCCCCCCCCCC(=O)O)C(=O)O)C(=O)N[C@@H](CCC(N)=O)C(=O)N[C@@H]([C@@H](C)O)C(=O)N[C@@H](C)C(=O)N[C@@H]([C@@H](C)O)C(=O)N1)[C@@H](C)O [Compound 96, [19CD]-isoGlu-R-C( )-QTAT-C( )-ATERLAHFLQRF-Gly(Me)-A-Ile(Me)-LSSTEVGSNTP-NH2] ({C20 diacid-γGlu}-RCQTATCATERLAHFLQRF[Sar]A[NMeI]LSSTEVGSNTP-NH2; disulfide 2-7)
– | A (A = >90%) | A (A = >90%) | B (B = 70-90%) | B (B = 70-90%) | FND | FD | FD | 0.12 nM | 0.23 nM | CC[C@H](C)[C@@H](C(=O)N[C@@H](CC(C)C)C(=O)N[C@@H](CO)C(=O)N[C@@H](CO)C(=O)N[C@H](C(=O)N[C@@H](CCC(=O)O)C(=O)N[C@H](C(=O)NCC(=O)N[C@@H](CO)C(=O)NCC(=O)N[C@H](C(=O)N1C[C@H](O)C[C@H]1C(N)=O)[C@@H](C)O)C(C)C)[C@@H](C)O)N(C)C(=O)[C@H](C)NC(=O)CN(C)C(=O)[C@H](Cc1ccccc1)NC(=O)[C@H](CCCNC(=N)N)NC(=O)[C@H](CCC(N)=O)NC(=O)[C@H](CC(C)C)NC(=O)[C@H](Cc1ccccc1)NC(=O)[C@H](Cc1c[nH]cn1)NC(=O)[C@H](C)NC(=O)[C@H](CC(C)C)NC(=O)[C@H](CCCNC(=N)N)NC(=O)[C@H](CCC(N)=O)NC(=O)[C@@H](NC(=O)[C@H](C)NC(=O)[C@@H]1CSSC[C@H](NC(=O)[C@H](CCCNC(=N)N)NC(=O)CC[C@H](NC(=O)CCCCCCCCCCCCCCCCCCC(=O)O)C(=O)O)C(=O)N[C@@H](CC(N)=O)C(=O)N[C@@H]([C@@H](C)O)C(=O)N[C@@H](C)C(=O)N[C@@H]([C@@H](C)O)C(=O)N1)[C@@H](C)O [Compound 79, [19CD]-isoGlu-R-C( )-NTAT-C( )-ATQRLAHFLQRF-Gly(Me)-A-Ile(Me)-LSSTEVGSGT-Hyp-NH2] ({C20 diacid-γGlu}-RCNTATCATQRLAHFLQRF[Sar]A[NMeI]LSSTEVGSGT[Hyp]-NH2; disulfide 2-7)
